Assay results taken from ChEMBL document CHEMBL3784959, “Cyclophosphamide pharmacokinetics and dose requirements in patients with renal insufficiency” (Kidney Int, 2002).

Columns and labels:
[1] = clinical; conditions: human, in vivo, iv, 0.83 g/m'2
Description: Systemic clearance in patient ( 12 patients) with normal renal function at 0.83 +/- 0.05 g/m'2 administered as pulse therapy with 1 hr infusion by HPLC analysis

[2] = Drug excretion in dialysate of patient (4 patients) with chronic renal failure at 100 mg, iv administered over 10 mins followed by hemodialysis for 4 hrs measured during hemodialysis treatment by GLC analysis; conditions: human
[3] = clinical; conditions: human, in vivo, iv, 1.2 g/m'2
Description: Renal clearance in patient (6 patients) with hemodialysis-dependent end-stage renal disease at 1.2 +/- 0.4 g/m'2 administered as pulse therapy with 1 hr infusion followed by hemodialysis for 3 hrs started 7 hrs post dose measured during hemodialysis treatment by HPLC analysis

[4] = clinical; conditions: human, in vivo, iv, 1.2 g/m'2; remark: listed apart in the source
Description: Systemic clearance in patient (6 patients) with hemodialysis-dependent end-stage renal disease at 1.2 +/- 0.4 g/m'2 administered as pulse therapy with 1 hr infusion followed by hemodialysis for 3 hrs started 7 hrs post dose measured during hemodialysis treatment by HPLC analysis

[5] = Drug excretion in urine of patient ( 12 patients) with normal renal function at 0.83 +/- 0.05 g/m'2 administered as pulse therapy with 1 hr infusion by HPLC analysis; conditions: human, iv, 0.83 g/m'2
[6] = clinical; conditions: human, in vivo, iv, 1.4 g/m'2
Description: Renal clearance in patient (6 patients) with moderate renal insufficiency at 1.4 +/- 0.1 g/m'2 administered as pulse therapy with 1 hr infusion by HPLC analysis

[7] = clinical; conditions: human, in vivo, iv, 1.1 g/m'2
Description: Elimination half life in patient (6 patients) with severe renal insufficiency at 1.1 +/- 0.2 g/m'2 administered as pulse therapy with 1 hr infusion by HPLC analysis

[8] = clinical; conditions: human, in vivo, iv, 0.83 g/m'2; remark: listed apart in the source
Description: Volume of distribution at steady state in patient ( 12 patients) with normal renal function at 0.83 +/- 0.05 g/m'2 administered as pulse therapy with 1 hr infusion by HPLC analysis

[9] = Drug excretion in urine of patient (6 patients) with hemodialysis-dependent end-stage renal disease at 1.2 +/- 0.4 g/m'2 administered as pulse therapy with 1 hr infusion followed by hemodialysis for 3 hrs started 7 hrs post dose measured during hemodialysis treatment by HPLC analysis; conditions: human, iv, 1.2 g/m'2
[10] = Drug excretion in urine of patient (6 patients) with moderate renal insufficiency at 1.4 +/- 0.1 g/m'2 administered as pulse therapy with 1 hr infusion by HPLC analysis; conditions: human, iv, 1.4 g/m'2
[11] = Volume of distribution at steady state in patient (6 patients) with severe renal insufficiency at 1.1 +/- 0.2 g/m'2 administered as pulse therapy with 1 hr infusion by HPLC analysis; conditions: human, in vivo, iv, 1.1 g/m'2
[12] = clinical; conditions: human, in vivo, iv, 1.1 g/m'2; remark: listed apart in the source
Description: Renal clearance in patient (6 patients) with severe renal insufficiency at 1.1 +/- 0.2 g/m'2 administered as pulse therapy with 1 hr infusion by HPLC analysis

[13] = Drug excretion in urine of patient (6 patients) with severe renal insufficiency at 1.1 +/- 0.2 g/m'2 administered as pulse therapy with 1 hr infusion by HPLC analysis; conditions: human, iv, 1.1 g/m'2
[14] = clinical; conditions: human, in vivo, iv, 0.83 g/m'2; remark: listed apart in the source
Description: Renal clearance in patient ( 12 patients) with normal renal function at 0.83 +/- 0.05 g/m'2 administered as pulse therapy with 1 hr infusion by HPLC analysis

[15] = Volume of distribution at steady state in patient (6 patients) with moderate renal insufficiency at 1.4 +/- 0.1 g/m'2 administered as pulse therapy with 1 hr infusion by HPLC analysis; conditions: human, in vivo, iv, 1.4 g/m'2
[16] = clinical; conditions: human, in vivo, iv, 1.1 g/m'2; remark: listed apart in the source
Description: Systemic clearance in patient (6 patients) with severe renal insufficiency at 1.1 +/- 0.2 g/m'2 administered as pulse therapy with 1 hr infusion by HPLC analysis

[17] = Volume of distribution at steady state in patient (6 patients) with hemodialysis-dependent end-stage renal disease at 1.2 +/- 0.4 g/m'2 administered as pulse therapy with 1 hr infusion followed by hemodialysis for 3 hrs started 7 hrs post dose measured during hemodialysis treatment by HPLC analysis; conditions: human, in vivo, iv, 1.2 g/m'2
[18] = clinical; conditions: human, in vivo, iv, 1.4 g/m'2; remark: listed apart in the source
Description: Elimination half life in patient (6 patients) with moderate renal insufficiency at 1.4 +/- 0.1 g/m'2 administered as pulse therapy with 1 hr infusion by HPLC analysis

[19] = clinical; conditions: human, in vivo, iv, 0.83 g/m'2; remark: listed apart in the source
Description: Elimination half life in patient ( 12 patients) with normal renal function at 0.83 +/- 0.05 g/m'2 administered as pulse therapy with 1 hr infusion by HPLC analysis

[20] = clinical; conditions: human, in vivo, iv, 1.4 g/m'2; remark: listed apart in the source
Description: Systemic clearance in patient (6 patients) with moderate renal insufficiency at 1.4 +/- 0.1 g/m'2 administered as pulse therapy with 1 hr infusion by HPLC analysis

[21] = Drug recovery in normal human urine
[22] = clinical; conditions: human, in vivo, iv, 1.2 g/m'2; remark: listed apart in the source
Description: Elimination half life in patient (6 patients) with hemodialysis-dependent end-stage renal disease at 1.2 +/- 0.4 g/m'2 administered as pulse therapy with 1 hr infusion followed by hemodialysis for 3 hrs started 7 hrs post dose measured during hemodialysis treatment by HPLC analysis

O=P1(N(CCCl)CCCl)NCCCO1 (configuration not stated) [CYCLOPHOSPHAMIDE ANHYDROUS]
clearance at 1 h [1]: 79 mL/min
dose excreted at 4 h [2]: 37%
CL renal at 7 h [3]: 2.1 mL/min
clearance [4]: 64 mL/min
dose excreted at 1 h [5]: 19.1%
CL renal at 1 h [6]: 3.4 mL/min
half-life at 1 h [7]: 7.3 h
Vd at 1 h [8]: 0.49 L/kg
dose excreted [9]: 3%
dose excreted at 1 h [10]: 5.8%
Vd at 1 h [11]: 0.36 L/kg
CL renal at 1 h [12]: 2.4 mL/min
dose excreted at 1 h [13]: 5.6%
CL renal at 1 h [14]: 14.9 mL/min
Vd at 1 h [15]: 0.36 L/kg
clearance at 1 h [16]: 47 mL/min
Vd [17]: 0.49 L/kg
half-life at 1 h [18]: 6.4 h
half-life at 1 h [19]: 4.8 h
clearance at 1 h [20]: 57 mL/min
dose excreted [21]: ≤ 25%
half-life [22]: 7.3 h
